Results taken from patent US8211631B2, “In vitro model of spinal muscular atrophy” (Wisconsin Alumni Research Foundation, priority 2008, dated 2012).
Entries after “also recorded” stand apart in the source; their conditions may differ.

Legend:
Type in all cases: cell-based, human
[1] = test system: SMN protein in iPS-SMA cells; experiment: Western blot analysis of SMN protein in drug-treated iPS-SMA cells; conditions: corrected to beta-actin, two days after drug treatment, 1 mM valproic acid or tobramycin, n=3
Experimental: Protein isolation and western blot analysis. Cells were isolated, suspended in 1% Triton X-100 lysis buffer supplemented with 1% protease inhibitor cocktail (Sigma), triturated and centrifuged at 16,060 g for 10 min at 4° C. Ten to twenty micrograms of protein was separated on 12% SDS-polyacrylamide gel, transferred to a nitrocellulose membrane and probed with a primary antibody against SMN (mouse monoclonal), followed by a horseradish-peroxidase-conjugated secondary antibody (Promega), and then visualized using ECL chemiluminescence (Amersham). As a control, the membrane was stripped and re-probed for beta-actin. For semiquantitative analysis, SMN signal intensity was analyzed and corrected with respect to beta-actin.
Finally, we assessed whether SMN-inducing compounds could increase SMN levels in the iPS-SMA cellular context because this would be an important proof-of-principle for the further development of drug screens. SMN protein is found in both the cytoplasm and nuclear aggregate structures called gems, and the number of gems present is inversely correlated to disease severity (Coovert, D. D. et al. The survival motor neuron protein in spinal muscular atrophy, Hum. Mol. Genet. 6, 1205-1214, 1997). […] We are at present assessing gem formation in differentiating motor neurons and have shown that they can indeed be detected (FIG. 14A, B).

[2] = test system: iPS-SMA cells; experiment: Nuclear gem localization (SMN immunostaining) in iPS-SMA-derived neurons and astrocytes after drug treatment; conditions: 1 mM valproic acid or tobramycin; 2 days of drug treatment; gems counted in 100 nuclei; P<0.05, ANOVA
Experimental: (§1) Immunocytochemistry. Cells were fixed in 4% paraformaldehyde or 1:1 acetone/methanol for 20 min at room temperature and rinsed with PBS. Nonspecific labeling was blocked and the cells were permeabilized with 5% normal goat serum and/or 5% normal donkey serum containing 0.2% Triton X-100 in PBS for 30 min at room temperature. Cells were rinsed with PBS and then incubated with primary antibodies for 1 h at room temperature or overnight at 4° C. Cells were then labeled with the appropriate fluorescently tagged secondary antibodies. Hoechst nuclear dye was used to label nuclei. Gems were counted in 100 nuclei, and positively stained neurons were counted and measured on five areas on each of three coverslips using Metamorph software. All data were analyzed using Prizm statistical software.
(§2) Finally, we assessed whether SMN-inducing compounds could increase SMN levels in the iPS-SMA cellular context because this would be an important proof-of-principle for the further development of drug screens. […] We are at present assessing gem formation in differentiating motor neurons and have shown that they can indeed be detected (FIG. 14A, B).

[3] = test system: iPS-WT cells; experiment: Nuclear gem localization (SMN immunostaining) in iPS-WT-derived neurons and astrocytes after drug treatment; conditions: 1 mM valproic acid or tobramycin; 2 days of drug treatment
Experimental: as §1, §2

`NC[C@H]1O[C@H](O[C@H]2[C@H](O)[C@@H](O[C@H]3O[C@H](CO)[C@@H](O)[C@H](N)[C@H]3O)[C@H](N)C[C@@H]2N)[C@H](N)C[C@@H]1O` [tobramycin] was tested, and the “increase in SMN protein levels compared to untreated iPS-SMA cells” value [1] was 3 fold, the “number of gems in treated compared to untreated iPS-SMA cells” value [2] was “significant increase in the number of gems; also recorded: significantly increased the number of gems” and the “gem localization in treated compared to untreated iPS-WT cells” value [3] was “no significant increase in gem localization”.

In the case of `CCCC(CCC)C(=O)O` [valproic acid], the “increase in SMN protein levels compared to untreated iPS-SMA cells” value [1] is reported as 2 fold, the “number of gems in treated compared to untreated iPS-SMA cells” value [2] is reported as “significant increase in the number of gems; also recorded: significantly increased the number of gems” and the “gem localization in treated compared to untreated iPS-WT cells” value [3] is reported as “no significant increase in gem localization”.
